Test results as given in patent US4414388A, “1-Oxo-1H-thiazolo[3,2-a]pyrimidine-2-carboxamides” (Pfizer Inc., priority 1981, dated 1983).
Entries after “also recorded” stand apart in the source; their conditions may differ. Where a name gives a salt, the structure may show the parent alone.

Experiments:
IgE = test: passive cutaneous anaphylaxis (PCA) test, oral, IgE (reaginic antiserum) site; format: in vivo, rat; details: Table I; for inhibition in vivo at 30 mg/kg: Rattus norvegicus, read-out: Oral Activity (% of Protection) of Amides in the PCA Test, IgE 30 mg./kg.
Experimental: (§1) The antiallergy property of the compounds of this invention is evaluated by the passive cutaneous anaphylaxis (PCA) test (Ovary, J. Immun., 81, 355, 1958). In the PCA test, normal animals are injected intradermally (i.d.) with antibodies contained in serum obtained from actively sensitized animals. The animals are then challenged intravenously with antigen mixed with a dye such as Evans' Blue. The increased capillary permeability caused by the antigen-antibody reaction causes the dye to leak from the site of the antibody injection. The test animals are then asphyxiated and the intensity of the reaction determined by measuring the diameter and intensity of the blue coloration on the inner surface of the animals' skin.
(§2) The PCA test is a measure of the anti-allergic (especially anti-asthmatic) activity of a compound. Compounds which inhibit a positive PCA test induced by the rat immunochemical counterpart of human immunoglobulin E (IgE), or reagin, are considered to have anti-allergic activity (C. Mota, Ann. N.Y. Acad. Sci., 103, 264 1963). (Reagin is primarily immunoglobulin E [IgE] and is the principal immunoglobulin responsible for allergic asthma, anaphylaxis, hay fever, food sensitivities and certain manifestations of drug sensitivities, although recent evidence ascribes to the IgG class of antibodies a significant role in the mediation of allergic diseases). Such compounds when administered to a sensitized subject, human or animal, prior to the time when the subject comes into contact with antigens or substances to which it is allergic, will prevent the allergic reaction which would otherwise occur. They, therefore, provide a method for the prophylactic treatment of allergy or anaphylactic reactions of a reagin mediated nature.
(§3) To put it another way, such compounds block the release of mediators resulting from the antigen-antibody (allergic) reaction as illustrated in the PCA test using rat homocytotropic antibody--a known correlate of human reaginic antibody. Inhibition of reaginic antigen-antibody reactions in rats, the test animal of the PCA test, is regarded as representative of inhibition of human reaginic antigen-antibody reactions which occur during allergic episodes.
(§4) The ability of agents to interfere with PCA reactions is measured in male Charles River Wistar rats, 170-210 g. Reaginic antiserum, rich in IgE antibodies, is prepared according to Petillo et al., Int. Arch. Allergy, 44, 309 (1973). Hyperimmune antiserum rich in IgG antibodies to hen egg albumin is prepared according to Orange et al., J. Exptl. Med., 127, 767 (1968). Forty-eight hours prior to antigen challenge, the reaginic antiserum is injected intradermally (i.d.) into the shaved skin of a normal rat's back; 5 hours before challenge the hyperimmune antisera is similarly injected. At a third site 60 mcg. histamine dihydrochloride and 0.5 mcg. serotonin creatinine sulfate are injected i.d. just prior to antigen challenge as a check for antihistaminic, antiserotonin and unspecific types of blockage; the compounds of the instant invention or saline are then administered i.v. and immediately followed by the challenge of 5 mg. egg albumen and 2.5 mg. Evans' Blue dye in saline. In the case of oral administration Evans' Blue dye and egg albumin are given 5 minutes after administration of the drug. Thirty minutes later the animals are asphyxiated using chloroform and the skin of the back removed and reversed for observation. A score is assigned each injection site equal to the product of the diameter of the site in mm. and a grade of 0.1, 0.5, 1, 2, 3 or 4 proportional to intensity of dye coloration. The scores for a given injection site are summed for each group of five animals and compared to the saline treated controls. The difference is expressed as percent blockage due to the compound employed. […]

IgG = test: passive cutaneous anaphylaxis (PCA) test, oral, IgG (hyperimmune antiserum) site; format: in vivo, rat; details: Table I; for inhibition in vivo at 30 mg/kg: Rattus norvegicus, read-out: Oral Activity (% of Protection) of Amides in the PCA Test, IgG 30 mg./kg.
Experimental: as §1, §2, §3, §4

mediators of anaphylaxis = details: cited from earlier work
[1] = test system: dextran induced release of histamine; test: dextran induced release of histamine into the rat peritoneal cavity; format: in vivo; details: ip
Excerpt: Compound III inhibits dextran induced release of histamine into the rat peritoneal cavity.

gastric ulcers = details: animals, including humans; cited from earlier work
[2] = water solubility and hygroscopicity of the sodium salt; format: physicochemical; details: sodium salt (trihydrate)
[3] = plasma concentration / oral absorption in dogs; format: in vivo, dog; details: dog; oral dosing of III
Experimental: (§5) This is supported by the observations of plasma concentrations of 3 to 7 μg/ml one hour after oral administration of III, 50 to 300 mg/kg.

allergy and ulcer = test: antiallergy and antiulcer activity, general statement; details: in vivo
Experimental: as §1
The antiulcer activity of the compounds of the present invention is evaluated by the so-called cold-restraint stressed rat assay. Alternatively, the antiulcer activity is determined in a newly established ethanol-induced rat ulcer assay described below.

[4] = plasma concentration / oral absorption in rats; format: in vivo, rat; details: rat; oral dosing of III
Experimental: as §5

## CC1CCc2c(sc3ncc(C(=O)Nc4nnn[nH]4)c(=O)n23)C1 (centres unmarked) [Amide I, R1R2 = CH2 CH(CH3)CH2 CH2, N-(5-tetrazolyl)-1-oxo-1H-7-methylcyclohexenothiazolo[3,2-a]pyrimidine-2-carboxamide]
IgE
  inhibition in vivo at 30 mg/kg: 44%
IgG
  inhibition in vivo at 30 mg/kg: 33%

## CCC(C)c1csc2ncc(C(=O)Nc3nnn[nH]3)c(=O)n12 (centres unmarked) [N-(5-Tetrazolyl)-1-oxo-1H-7-(2-butyl)thiazolo[3,2-a]pyrimidine-2-carboxamide]
IgE
  inhibition in vivo at 30 mg/kg: 6%
IgG
  inhibition in vivo at 30 mg/kg: 6%

## CC(C)c1csc2ncc(C(=O)Nc3nnn[nH]3)c(=O)n12 [Amide I, R1 = H, R2 = CH(CH3)2, N-(5-tetrazolyl)-1-oxo-1H-7-isopropylthiazolo[3,2-a]pyrimidine-2-carboxamide]
IgE
  Oral Activity (% of Protection) of Amides in the PCA Test, IgE 10 mg./kg.: 72%
IgG
  Oral Activity (% of Protection) of Amides in the PCA Test, IgG 10 mg./kg.: 53%

## O=C(Nc1nnn[nH]1)c1cnc2sc3c(n2c1=O)CCCCC3 [Amide I, R1R2 = (CH2)5, N-(5-tetrazolyl)-1-oxo-1H-cycloheptenothiazolo[3,2-a]pyrimidine-2-carboxamide]
IgE
  Oral Activity (% of Protection) of Amides in the PCA Test, IgE 10 mg./kg.: 25%
IgG
  Oral Activity (% of Protection) of Amides in the PCA Test, IgG 10 mg./kg.: 38%

## O=C(O)c1cc(=O)c2c(OCC(O)COc3cccc4oc(C(=O)O)cc(=O)c34)cccc2o1 [Intal, 1,3-bis(2-carboxycromon-5-yloxy)-2-hydroxy-propane]
Mediators of anaphylaxis; in vivo
  bronchodilator activity: not a bronchodilator
  release of mediators of anaphylaxis: inhibition of release of mediators of anaphylaxis
Mediators of anaphylaxis; oral route
  oral activity/efficacy of Intal: lacks efficacy by the oral route; also recorded: not active by the oral route; also recorded: lack of oral efficacy
[1]
  ED50: 0.014 mg/kg

## CC(C)(C)c1csc2ncc(C(=O)Nc3nnn[nH]3)c(=O)n12 [Amide I, R1 = H, R2 = C(CH3)3, N-(5-tetrazolyl)-1-oxo-1H-7-(2-methyl-2-propyl)thiazolo[3,2-a]pyrimidine-2-carboxamide]
IgE
  Oral Activity (% of Protection) of Amides in the PCA Test, IgE 10 mg./kg.: 37%
IgG
  Oral Activity (% of Protection) of Amides in the PCA Test, IgG 10 mg./kg.: 20%

## CCc1sc2ncc(C(=O)Nc3nnn[nH]3)c(=O)n2c1CC [Amide I, R1 = C2 H5, R2 = C2 H5, N-(5-tetrazolyl)-1-oxo-1H-6,7-diethylthiazolo[3,2-a]pyrimidine-2-carboxamide]
IgE
  Oral Activity (% of Protection) of Amides in the PCA Test, IgE 10 mg./kg.: 62%
IgG
  Oral Activity (% of Protection) of Amides in the PCA Test, IgG 10 mg./kg.: 49%

## O=C(Nc1nnn[nH]1)c1cnc2sc3c(n2c1=O)CCCCCC3 [Amide I, R1R2 = (CH2)6, N-(5-Tetrazolyl)-1-oxo-1H-cyclooctenothiazolo[3,2-a]pyrimidine-2-carboxamide]
IgE
  Oral Activity (% of Protection) of Amides in the PCA Test, IgE 10 mg./kg.: 94%
IgG
  Oral Activity (% of Protection) of Amides in the PCA Test, IgG 10 mg./kg.: 57%

## CCc1c(C)sc2ncc(C(=O)Nc3nnn[nH]3)c(=O)n12 [Amide I, R1 = CH3, R2 = C2 H5, N-(5-tetrazolyl)-1-oxo-1H-6-methyl-7-ethylthiazolo[3,2-a]pyrimidine-2-carboxamide]
IgE
  Oral Activity (% of Protection) of Amides in the PCA Test, IgE 10 mg./kg.: 75%
IgG
  Oral Activity (% of Protection) of Amides in the PCA Test, IgG 10 mg./kg.: 57%

## CC1(C)CCc2c(sc3ncc(C(=O)Nc4nnn[nH]4)c(=O)n23)C1 [Amide I, R1R2 = CH2 C(CH3)2 CH2 CH2, N-(5-Tetrazolyl)-1-oxo-1H-7,7-dimethylcyclohexenothiazolo[3,2-a]pyrimidine-2-carboxamide]
IgE
  inhibition in vivo at 30 mg/kg: 38%
IgG
  inhibition in vivo at 30 mg/kg: 27%

## CN/C(=N/CCSCc1nc[nH]c1C)NC#N [cimetidine]
Gastric ulcers
  effect on gastric ulcers: alleviates ulcers by reducing gastric acid secretion

## O=C(Nc1nnn[nH]1)c1cnc2sc3c(n2c1=O)CCC(c1ccccc1)C3 (centres unmarked) [Amide I, R1R2 = CH2 CH(C5 H6)CH2 CH2, N-(5-tetrazolyl)-1-oxo-1H-7-phenylcyclohexenothiazolo[3,2-a]pyrimidine-2-carboxamide]
IgE
  inhibition in vivo at 30 mg/kg: 4%
IgG
  inhibition in vivo at 30 mg/kg: 7%

## O=C(Nc1nnn[nH]1)c1cnc2sc3c(n2c1=O)CCC3 [Amide I, R1R2 = (CH2)3, N-(5-tetrazolyl)-1-oxo-1H-cyclopentenothiazolo[3,2-a]pyrimidine-2-carboxamide]
IgE; 3 mg./kg.
  Oral Activity (% of Protection) of Amides in the PCA Test, IgE 3 mg./kg.: 46%
IgG; 3 mg./kg.
  Oral Activity (% of Protection) of Amides in the PCA Test, IgG 3 mg./kg.: 43%

## O=C(Nc1nnn[nH]1)c1cnc2sc3c(n2c1=O)CCCC3 [sodium salt (trihydrate), sodium N-(5-tetrazolyl)-1-oxo-1H-cyclohexenothiazolo[3,2-a]pyrimidine-2-carboxamide trihydrate]
[2]
  hygroscopicity: non-hygroscopic
  water solubility: good water solubility

## CC1(C)[C@@H](OC(=O)CCC(=O)O)CC[C@]2(C)[C@H]3C(=O)C=C4[C@@H]5C[C@@](C)(C(=O)O)CC[C@]5(C)CC[C@@]4(C)[C@]3(C)CC[C@@H]12 [carbenoxolone sodium, disodium salt of the hemisuccinate of glycyrrhetinic acid]
Gastric ulcers
  effect on gastric ulcers: prevent formation of and to accelerate healing of gastric ulcers

## O=C(O)c1cnc2sc3c(n2c1=O)CCCC3 [Acid II, R1R2 = (CH2)4, 1-oxo-1H-cyclohexenothiazolo[3,2-a]pyrimidine-2-carboxylic acid]
[3]
  plasma levels of the carboxylic acid metabolite compared with III, dog: comparable to those of III
Allergy and ulcer
  activity of metabolite, in words: good activity
[4]
  plasma levels of the carboxylic acid metabolite compared with III, rat: comparable to those of III

## CCc1csc2ncc(C(=O)Nc3nnn[nH]3)c(=O)n12 [Amide I, R1 = H, R2 = C2 H5, N-(5-tetrazolyl)-1-oxo-1H-7-ethylthiazolo[3,2-a]pyrimidine-2-carboxamide]
IgE
  Oral Activity (% of Protection) of Amides in the PCA Test, IgE 10 mg./kg.: 70%
IgG
  Oral Activity (% of Protection) of Amides in the PCA Test, IgG 10 mg./kg.: 44%
